For data set [1], the system named is PEA2. Briefly: MTT cytotoxicity assay, PEA2. The conditions noted are these: PEA2, ovarian, 72 hr, read-out: IC50, cell killing. It counts as cell-based. The method, then: (§1) All cell lines were obtained from the American Type Culture Collection (ATCC) and cultured in the specified medium supplemented with 10% fetal bovine serum, 100 IU/mL penicillin, and 100 μg/mL streptomycin at 37° C. in a humidified 5% CO2/95% air incubator. To assess drug cytotoxicity cells were seeded at 2,500 cells/well (10,000 cells/well for MM lines and primary cells) in 100 μL medium in 96-well plate. […]
(§2) It was examined whether the RPN13 inhibitor, RA475, was cytotoxic for cancer cell lines using the MTT assay.

Data set [2] relates to ES2. In words: Flow cytometry analysis of cell death, ES2. It counts as cell-based. The conditions noted are these: 1 μM or 2 μM, 16 hr. Here is the method:
(§3) 10^5 cells were re-suspended in binding buffer, 5 μL of Annexin V-PE (Apoptosis Detection Kit I (BD Pharmingen) and 5 μL of 7-AAD were then added into the cells, which were then incubated at room temperature for 15 minutes and analyzed by flow cytometry on a FACSCalibur using CellQuest software (Becton Dickinson).
(§4) Two ovarian cancer cell lines, ES2 and OVCAR3, were treated with 1 μM or 2 μM RA475 and 16 hr later the cells were harvested and stained with 7-AAD and Annexin V. 7-AAD is a DNA dye that can enter dying cells and Annexin V is commonly used to detect apoptotic cells by its ability to bind to phosphatidylserine, an early marker of apoptosis when it is exposed on the outer leaflet of the plasma membrane.

Data set [3] deals with HeLa. In words: MTT cytotoxicity assay, HeLa. Format: cell-based. The note with it: cervical, 72 hr, read-out: IC50, cell killing. The method, then:
as §1, §2
(Tetrazolium dyes change colour on reduction, which living cells bring about.)

Data set [4] relates to OVCAR3. In words: Flow cytometry analysis of cell death, OVCAR3. Format: cell-based. The conditions noted are these: 1 μM or 2 μM, 16 hr. Here is the method: as §3, §4
For orientation: A flow cytometer gives signals particle by particle.

Data set [5] relates to ID8-Vegf Defb29 cells stably expressing firefly luciferase in C57BL6 mice. Briefly: ID8-Luc syngeneic ovarian tumor model. Format: in vivo, mouse. The note with it: female C57BL6 mice, 40 mg/Kg every 3 days, i.p. The method, then: Whereas vehicle treatment (n=7) increased tumor burden and ascites formation.
Briefly, female C57BL6 mice were injected (i.p.) with ID8-Vegf Defb29 cells stably expressing firefly luciferase (0.5×10^6 cells) in PBS (100 uL). After 72 hrs, mice were imaged for their basal luminescence levels using an IVIS200 imager. Mice with visible luminescence were randomized into two groups and treated with Vehicle (25% b-hydroxy propylcyclodextrin in water, 200 uL, every 3 days, i.p.) and RA475 (40 mg/Kg, every 3 days, i.p.). Mice were imaged every week to measure bioluminescence expressed by tumor after administration of luciferin (100 uL, 7.8 mg/mL).

Data set [6] deals with PEA1. In words: MTT cytotoxicity assay, PEA1. It counts as cell-based. The note with it: PEA1, ovarian, 72 hr, read-out: IC50, cell killing. The method, then: as §1, §2
The subject of data set [7] is HepG2. In words: MTT cytotoxicity assay, HepG2. It counts as cell-based. The note with it: HepG2, liver, 72 hr, read-out: IC50, cell killing. Here is the method:
as §1, §2

The subject of data set [8] is U251MG. In words: MTT cytotoxicity assay, U251MG. Format: cell-based. The note with it: glioblastoma multiforme, 72 hr, read-out: IC50, cell killing. The method, then:
as §1, §2

The subject of data set [9] is HCC1806 cells stably expressing 4UbFL. Briefly: 4UbFL proteasome reporter, HCC1806 cells. Format: cell-based. The conditions noted are these: 4 hr treatment, IVIS imager. The method, then:
Data are presented as IVIS image (FIG. 8A) and bioluminescence units (FIG. 8B).
4T1 and HCC1806 cells were transfected with 4UbFL plasmid using TransIT2020 transfection reagent for a period of 48 hrs and cells were selected using G418 antibiotic from single colonies. Selected cells were seeded in a 24-well plate (50,000/well) and incubated for 18 h at 37° C. in an incubator. Next, cells were treated with compounds for the period of 4 hr and Luciferin was added (50 uL each well, 7.8 mg/mL) and imaged through an IVIS200 instrument and plotted as a bioluminescent value or fold increase to DMSO control.

For data set [10], the system named is high molecular weight polyubiquitinated proteins in OVCAR3 cells. In words: Western blot for polyubiquitinated proteins, OVCAR3 cells. It counts as cell-based. The note with it: RA475 0.5 μM and 1 μM. Here is the method:
Cell lysate (10-20 μg total protein) prepared in MPER (Pierce) from each sample was subjected to SDS-PAGE, transferred to PVDF membranes and analyzed by Western blot using antibodies specific for ubiquitin (P4D1, sc-8017, Santa Cruz), or after stripping antibody for actin (#66009, Protein Tech Group), at the dilutions recommended by the manufacturers, and for secondary antibodies either peroxidase-linked anti-mouse IgG or anti-rabbit IgG (GE Healthcare UK Ltd) were utilized at the recommended dilution. The blots were developed using HyGLO chemiluminescent detection reagent (Denville).
Proteasome inhibitors cause a rapid accumulation of polyUb proteins that is associated with unresolved UPR stress and the induction of apoptosis. Since RA475 is cytotoxic to ovarian cancer cells (Table 1), and induces such a rapid accumulation of polyUb proteins (FIG. 5), it was examined whether RA475 also triggered apoptosis. SKOV3 cells (FIG. 5A) were treated with Up284 (0.5 μM and 1 μM), 1 μM RA190, RA475 (0.5 μM and 1 μM) or vehicle alone (DMSO) and then cultured for 12 hr. OVCAR3 cells (FIG. 5B) were treated with Up284 (0.5 μM), Bortezomib (Bz, 0.25 μM), Ixazomib (Iz, 0.25 μM), RA475 (0.5 μM and 1 μM) or vehicle alone (DMSO). The attached cells were harvested and their lysates were subjected to Western blot analysis, first probed with antibody to ubiquitin and then to actin.

In data set [11] the test system is DLD-1. Briefly: MTT cytotoxicity assay, DLD-1. It counts as cell-based. The conditions noted are these: DLD-1, colon, 72 hr, read-out: IC50, cell killing. Here is the method: as §1, §2
Data set [12] has as its system BT549. Briefly: MTT cytotoxicity assay, BT549. Format: cell-based. The conditions noted are these: BT549, breast, 72 hr, read-out: IC50, cell killing. Here is the method:
as §1, §2

As to `Cl.Cl.N#Cc1ccc(/C=C2/C(=O)/C(=C/c3ccc(C#N)cc3)C23CCN(C(=N)N)CC3)cc1` [RA475], the IC50 in data set [1] stood at 356 nM; in data set [3] it was 213 nM; in data set [6], 406 nM; in data set [7], 241 nM; in data set [8], 600 nM; in data set [11] it was 491 nM. Further, the half-inhibitory concentration (IC50) in data set [12] was determined as 229 nM. The “7-AAD and Annexin V double positive cells” value in data set [2] and in [4] was “dose-dependent induction” in each case. Moreover, the body weight entry in [5] is recorded as “no weight loss”. Further, in data set [5], the “effect on tumor (bioluminescence)” value is “regressed tumor”. Besides, in [5], the survival entry is listed as “enhanced survival”. Further, the “bioluminescence of 4UbFL reporter” value in [9] is “dose-dependent increase”. Also, the “accumulation of high molecular weight polyubiquitinated proteins” value in data set [10] is on record as “triggers the accumulation”.

What is called IC50 is the concentration needed to halve the response being measured.
